From paper PMC12266748, “A Xanthine Derivative With Novel Heat Shock Protein 90‐Alpha Inhibitory and Senolytic Properties” (Aging Cell, 2025)

Key:
MCF7 cells = test: Immunofluorescence of Cytochrome C / mitochondria colocalization in senescent MCF7; format: cell-based, Homo sapiens; details: MCF7, TAM 10 µM 96 h, then 72 h K5 10 µM or Dasatinib 1 µM
Protocol: Treated/untreated senescent IMR90 and MCF7 cells were fixed, permeabilized, and stained following suppliers' recommendations. Images were acquired using an Olympus IX83 research inverted microscope (IF) and a phase microscopy Nikon ECLIPSE Ei R (IHC) at 40× MAG.
Immunofluorescence staining. Treated/untreated IMR90 and MCF7 cells were cultured in LabTek II chamber slides (Nunc, Biosigma). At the final time point, cells were stained with 500 nM MitoTracker Orange (Thermo Fisher Scientific) for 30 min at 37°C and then fixed in 4% PFA (Merck) for 10 min, RT, and permeabilized with 0.1% Triton solution (Merck) for 30 min at RT. Samples were blocked in 5% BSA for 90 min, incubated overnight at 4°C with primary antibody against Cytochrome C (1:50, RbMAb, Abcam), and 1h at RT with secondary antibody Alexa Fluor 488 goat anti-Rb (1:200, Thermo Fisher Scientific). Nuclei were stained with DAPI (Cell Signaling) for 10 min at RT, and ProLong Glass Antifade Mountant (Thermo Fisher Scientific) was used to seal coverslips. Images were acquired using an Olympus IX83 research inverted microscope at 40X magnifications.

C57BL/6J mice = test: Extended study in geriatric C57BL/6J mice (biochemistry, function, necropsy, cytokines, SA-β-gal in organs); format: in vivo, mouse
Protocol: Sections were prepared from organs and ear biopsies from snap‐frozen tissues and mounted on SuperFrost Plus slides (VWR). SA‐β‐gal staining was performed according to the manufacturer's instructions for the Sigma‐Aldrich‐QIA117 staining kit (Sigma‐Aldrich). Nuclei were counterstained with Nuclear Fast Red (Sigma‐Aldrich), and images were acquired using a Zeiss AxioCam HRc mounted on a Leitz Laborlux S light microscope. The percentage of senescent cells was determined with QuPath v. 0.3.2 (Bankhead et al. [2017]).
All experiments were performed per the European Community Council Directives of 2010/63/UE. The pilot study (PS) investigated safety and potential senolytic efficacy, and the Extended study (ES) investigated functional changes, pathological phenotype, and the principal organ targeted by K5. Protocols were approved according to current Italian law (D.Lgs. n. 26/2014) by OPBA (animal care and health committee) of IRCCS INRCA and by the General Direction of Animal Health and Veterinary Drugs of the Italian Ministry of Health with authorization n°‐137/2021‐PR for PS and authorization n°‐370/2022‐PR for ES. In the PS of p16‐3MR mice (26 months), bioluminescence associated with p16‐expression was monitored before and after treatment, and the health of the mice was longitudinally studied. The ES used geriatric C57BL/6J mice (31 months). Clinical health and physical performance were analyzed before and after K5 treatment. Subsequently, the animals were euthanized, gross necropsies were performed, and organs were collected for further analysis. Detailed protocols are reported in the extended section.
Blood samples were collected from the right retroorbital plexus. Glucose (GLUC), creatinine (CREA), aspartate aminotransferase (AST/GOT), and alanine aminotransferase (ALT/GPT) were determined in EDTA‐plasma by using an automated analyzer (Cobas Mira, Roche) according to the manufacturer's instructions. Cytokines were measured in EDTA‐plasma using the ProcartaPlex Mouse Cytokine & Chemokine Panel 1, 26plex (Thermofisher) and read in the Luminex 200 instrument (Bio‐Rad), following the producer's recommendation.
We measured the clinical frailty index (CFI), Clinical Health Score (CHS), Physical Function Score (PFS), and Vitality Score (VS) in mice, as previously described (Marcozzi et al. [2023]). All frailty measurements were performed in a dedicated INRCA SPF animal facility area. The CFI score for each mouse was calculated as previously published (Whitehead et al. [2014]). The VS was obtained by calculating the arithmetic mean of the individual values of CHS and PFS. Several tests were assessed for endurance and speed Scores; details are reported in the extended methods.
For aged tissues: 10 μm-thick tissue sections were prepared from nine organs (liver, heart, lung, kidney, quadriceps, gastrocnemius, brain cortex, cerebellum, and hippocampus) and ear biopsies with a cryostat from snap-frozen tissues and mounted on SuperFrost Plus slides (VWR, Radnor, PA, USA). SA-β-gal staining was performed according to the manufacturer's instructions of the Sigma-Aldrich-QIA117 staining kit (Sigma-Aldrich, St. Louis, MO, USA). Nuclei were counterstained with Nuclear Fast Red (NFR) (Sigma-Aldrich, St. Louis, MO, USA), and images (from […] sections) were acquired using a Zeiss AxioCam HRc mounted on a Leitz Laborlux S light microscope. The percentage of senescent cells was determined as the mean of 3–4 images from each tissue section by counting the total and SA-β-gal-positive cells with the positive cell detection tool available in the open-source software for digital image analysis, QuPath v. 0.3.2 (Bankhead et al. 2017).
In the extended study, more geriatric C57BL/6J mice were used to confirm safety and investigate the main organs targeted by K5 (Fig. S5). For this purpose, 26 geriatric mice (14 males, 12 females, aged 31 months) and 24 geriatric mice (13 males, 11 females, and 31 months) were treated with K5 and the Vehicle. […]

[1] = geriatric C57BL/6J mice, vs control

`Cc1ccccc1-n1c(=O)n(Cc2ccccc2)c(=O)c2[nH]cnc21` [Compound K5, 1-benzyl-3-(2-methylphenyl)-7H-purine-2,6-dione] was tested, and the “Cytochrome C / mitochondria colocalization, Overlap R (OR)” value (MCF7 cells; TAM + Vehicle OR = 0.978) was 0.896, the “Cytochrome C / mitochondria colocalization, Pearson's Rr (PRr)” value (MCF7 cells; TAM + Vehicle PRr = 0.961) was 0.810 and the body weight (C57BL/6J mice; geriatric C57BL/6J mice, throughout the treatment period) was “remained stable”. The “plasma levels of glucose, creatinine, GOT, and GPT, treated vs control” value (C57BL/6J mice; geriatric C57BL/6J mice, two rounds of three injections) was “no significant differences”, the “SA-β-gal staining in the liver” value (C57BL/6J mice; [1]) was “significantly reduced staining” and the “SA-β-gal staining in the pancreas” value (C57BL/6J mice; [1]) was “significantly reduced staining”. The “circulating IL-1β” value (C57BL/6J mice; geriatric C57BL/6J mice, vs controls) was “significant reduction”, the “Physical Function Score vs control” value (C57BL/6J mice; treated male mice) was “significant increase” and the “Vitality Score vs control” value (C57BL/6J mice; treated male mice) was “significant increase”. The “tumor incidence at gross necropsy” value (C57BL/6J mice; treated male mice) was “lower incidence of tumors”.
